Reference: BigSolDB 2.1

## O=C(N[C@H](Cc1ccccc1)C(=O)O)OCC1c2ccccc2-c2ccccc21
In 2-butanone, 283.15 K
  solubility (mole fraction): 0.00646
In 2-butanone, 288.15 K
  solubility (mole fraction): 0.00728
In 2-butanone, 293.15 K
  solubility (mole fraction): 0.00803
In 2-butanone, 298.15 K
  solubility (mole fraction): 0.00895
In 2-butanone, 303.15 K
  solubility (mole fraction): 0.00993
In 2-butanone, 308.15 K
  solubility (mole fraction): 0.0112
In 2-butanone, 313.15 K
  solubility (mole fraction): 0.0133
In 2-butanone, 318.15 K
  solubility (mole fraction): 0.015
In 2-butanone, 323.15 K
  solubility (mole fraction): 0.017
In acetone, 283.15 K
  solubility (mole fraction): 0.00728
In acetone, 288.15 K
  solubility (mole fraction): 0.00759
In acetone, 293.15 K
  solubility (mole fraction): 0.00837
In acetone, 298.15 K
  solubility (mole fraction): 0.00931
In acetone, 303.15 K
  solubility (mole fraction): 0.0109
In acetone, 308.15 K
  solubility (mole fraction): 0.0128
In acetone, 313.15 K
  solubility (mole fraction): 0.0146
In acetone, 318.15 K
  solubility (mole fraction): 0.0164
In acetone, 323.15 K
  solubility (mole fraction): 0.0193
In acetonitrile, 283.15 K
  solubility (mole fraction): 0.000619
In acetonitrile, 288.15 K
  solubility (mole fraction): 0.00066
In acetonitrile, 293.15 K
  solubility (mole fraction): 0.000723
In acetonitrile, 298.15 K
  solubility (mole fraction): 0.00084
In acetonitrile, 303.15 K
  solubility (mole fraction): 0.000952
In acetonitrile, 308.15 K
  solubility (mole fraction): 0.00117
In acetonitrile, 313.15 K
  solubility (mole fraction): 0.00138
In acetonitrile, 318.15 K
  solubility (mole fraction): 0.00168
In acetonitrile, 323.15 K
  solubility (mole fraction): 0.00203
In ethanol, 283.15 K
  solubility (mole fraction): 0.00161
In ethanol, 288.15 K
  solubility (mole fraction): 0.00173
In ethanol, 293.15 K
  solubility (mole fraction): 0.00187
In ethanol, 298.15 K
  solubility (mole fraction): 0.00205
In ethanol, 303.15 K
  solubility (mole fraction): 0.0024
In ethanol, 308.15 K
  solubility (mole fraction): 0.00278
In ethanol, 313.15 K
  solubility (mole fraction): 0.00324
In ethanol, 318.15 K
  solubility (mole fraction): 0.004
In ethanol, 323.15 K
  solubility (mole fraction): 0.00515
In ethyl acetate, 283.15 K
  solubility (mole fraction): 0.00272
In ethyl acetate, 288.15 K
  solubility (mole fraction): 0.003
In ethyl acetate, 293.15 K
  solubility (mole fraction): 0.00342
In ethyl acetate, 298.15 K
  solubility (mole fraction): 0.00379
In ethyl acetate, 303.15 K
  solubility (mole fraction): 0.00443
In ethyl acetate, 308.15 K
  solubility (mole fraction): 0.00504
In ethyl acetate, 313.15 K
  solubility (mole fraction): 0.00571
In ethyl acetate, 318.15 K
  solubility (mole fraction): 0.00682
In ethyl acetate, 323.15 K
  solubility (mole fraction): 0.00793
In isopropanol, 283.15 K
  solubility (mole fraction): 0.000943
In isopropanol, 288.15 K
  solubility (mole fraction): 0.00103
In isopropanol, 293.15 K
  solubility (mole fraction): 0.00114
In isopropanol, 298.15 K
  solubility (mole fraction): 0.00126
In isopropanol, 303.15 K
  solubility (mole fraction): 0.00155
In isopropanol, 308.15 K
  solubility (mole fraction): 0.00208
In isopropanol, 313.15 K
  solubility (mole fraction): 0.00263
In isopropanol, 318.15 K
  solubility (mole fraction): 0.00311
In isopropanol, 323.15 K
  solubility (mole fraction): 0.00375
In methanol, 283.15 K
  solubility (mole fraction): 0.00189
In methanol, 288.15 K
  solubility (mole fraction): 0.00192
In methanol, 293.15 K
  solubility (mole fraction): 0.00199
In methanol, 298.15 K
  solubility (mole fraction): 0.00212
In methanol, 303.15 K
  solubility (mole fraction): 0.00243
In methanol, 308.15 K
  solubility (mole fraction): 0.00285
In methanol, 313.15 K
  solubility (mole fraction): 0.00331
In methanol, 318.15 K
  solubility (mole fraction): 0.0039
In methanol, 323.15 K
  solubility (mole fraction): 0.00513
In methyl acetate, 283.15 K
  solubility (mole fraction): 0.00327
In methyl acetate, 288.15 K
  solubility (mole fraction): 0.00358
In methyl acetate, 293.15 K
  solubility (mole fraction): 0.00408
In methyl acetate, 298.15 K
  solubility (mole fraction): 0.00458
In methyl acetate, 303.15 K
  solubility (mole fraction): 0.00537
In methyl acetate, 308.15 K
  solubility (mole fraction): 0.00623
In methyl acetate, 313.15 K
  solubility (mole fraction): 0.0072
In methyl acetate, 318.15 K
  solubility (mole fraction): 0.00884
In methyl acetate, 323.15 K
  solubility (mole fraction): 0.0105
In n-butanol, 283.15 K
  solubility (mole fraction): 0.00121
In n-butanol, 288.15 K
  solubility (mole fraction): 0.00136
In n-butanol, 293.15 K
  solubility (mole fraction): 0.00156
In n-butanol, 298.15 K
  solubility (mole fraction): 0.00181
In n-butanol, 303.15 K
  solubility (mole fraction): 0.0022
In n-butanol, 308.15 K
  solubility (mole fraction): 0.00261
In n-butanol, 313.15 K
  solubility (mole fraction): 0.00322
In n-butanol, 318.15 K
  solubility (mole fraction): 0.00389
In n-butanol, 323.15 K
  solubility (mole fraction): 0.00511
In n-butyl acetate, 283.15 K
  solubility (mole fraction): 0.00209
In n-butyl acetate, 288.15 K
  solubility (mole fraction): 0.00227
In n-butyl acetate, 293.15 K
  solubility (mole fraction): 0.00243
In n-butyl acetate, 298.15 K
  solubility (mole fraction): 0.00278
In n-butyl acetate, 303.15 K
  solubility (mole fraction): 0.00305
In n-butyl acetate, 308.15 K
  solubility (mole fraction): 0.00352
In n-butyl acetate, 313.15 K
  solubility (mole fraction): 0.00409
In n-butyl acetate, 318.15 K
  solubility (mole fraction): 0.0046
In n-butyl acetate, 323.15 K
  solubility (mole fraction): 0.00536
In n-propanol, 283.15 K
  solubility (mole fraction): 0.00161
In n-propanol, 288.15 K
  solubility (mole fraction): 0.00168
In n-propanol, 293.15 K
  solubility (mole fraction): 0.00178
In n-propanol, 298.15 K
  solubility (mole fraction): 0.0019
In n-propanol, 303.15 K
  solubility (mole fraction): 0.00217
In n-propanol, 308.15 K
  solubility (mole fraction): 0.00252
In n-propanol, 313.15 K
  solubility (mole fraction): 0.00316
In n-propanol, 318.15 K
  solubility (mole fraction): 0.00365
In n-propanol, 323.15 K
  solubility (mole fraction): 0.00456
In n-propyl acetate, 283.15 K
  solubility (mole fraction): 0.0023
In n-propyl acetate, 288.15 K
  solubility (mole fraction): 0.00244
In n-propyl acetate, 293.15 K
  solubility (mole fraction): 0.00275
In n-propyl acetate, 298.15 K
  solubility (mole fraction): 0.00318
In n-propyl acetate, 303.15 K
  solubility (mole fraction): 0.00354
In n-propyl acetate, 308.15 K
  solubility (mole fraction): 0.00405
In n-propyl acetate, 313.15 K
  solubility (mole fraction): 0.00467
In n-propyl acetate, 318.15 K
  solubility (mole fraction): 0.00534
In n-propyl acetate, 323.15 K
  solubility (mole fraction): 0.00613
